What follows are compounds tested against T1, human recombinant GPR65 (Homo sapiens, UniProt Q8IYL9) (assay: Human GPR65 cAMP HTRF antagonist assay). Settings: 1321N1-hrGPR65 cells stimulated at assay pH 7.2; suppression of cAMP rise; read-out: hGPR65 IC50.
T1 construct: host or cells: 1321N1 human astrocytoma cells (1321N1-hrGPR65)
T1 sequence (Q8IYL9 whole entry): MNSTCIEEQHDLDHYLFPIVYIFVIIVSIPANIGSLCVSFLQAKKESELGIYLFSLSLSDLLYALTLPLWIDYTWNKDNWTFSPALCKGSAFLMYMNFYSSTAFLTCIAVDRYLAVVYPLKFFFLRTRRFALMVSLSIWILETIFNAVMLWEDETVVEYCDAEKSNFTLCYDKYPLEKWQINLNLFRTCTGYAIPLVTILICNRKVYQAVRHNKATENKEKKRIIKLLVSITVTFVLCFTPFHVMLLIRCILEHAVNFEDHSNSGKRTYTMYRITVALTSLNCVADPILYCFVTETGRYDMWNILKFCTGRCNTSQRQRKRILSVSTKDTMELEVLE
Format: cell-based
Experimental: Human GPR65 Cyclic Adenosine Monophosphate (cAMP) Homogeneous Time Resolved Fluorescence (HTRF) Antagonist Assay Procedure
IC50 data was obtained by the following procedure:
1321N1 human astrocytoma cells stably expressing human recombinant GPR65 (1321N1-hrGPR65 cells, EuroscreenFast) were cultured according to the vendor's instructions.
Compounds were tested for their ability to antagonise GPR65, through measuring the concentration of cytoplasmic cAMP following treatment of the cells at a pH of 7.2 to activate GPR65 signalling and addition of the compound to be tested. The extent to which the expected rise in cAMP concentration upon GPR65 activation was suppressed by the added compound is indicative of its potency. The assay was carried out according to EuroscreenFast assay methodology as follows.
On the day of the assay, test compounds were added to 384-well, low volume, white microtiter plates by acoustic dispensing. KRH buffer (5 mM KCl, 1.25 mM MgSO4, 124 mM NaCl, 25 mM HEPES, 13.3 mM Glucose, 1.25 mM KH2PO4 and 1.45 mM CaCl2) was adjusted to pH 6.5, pH 7.6 and pH 8.4 by adding NaOH. 1321N1-hGPR65 cells were rapidly thawed and diluted in KRH, pH 7.6 prior to centrifugation at 300×g for 5 min and resuspension in assay buffer (KRH, pH 7.6, supplemented with 1 mM 3-isobutyl-1-methylxanthine (IBMX) and 200 μM ethylenediaminetetraacetic acid (EDTA)). Cells were added to assay plates at a density of 2,000 cells per well in a volume of 5 μl. Assay plates were briefly centrifuged at 100×g and then incubated at room temperature for 30 min. Cells were stimulated by the addition of 5 μL KRH, pH 6.5, to achieve an assay pH of 7.2, while control wells received 5 μl KRH, pH 8.4 to achieve an assay pH of 7.9. Assay plates were briefly centrifuged at 100×g and then incubated at room temperature for 30 min.
Accumulation of cAMP was detected by cAMP HTRF kit (Cisbio). d2-labeled cAMP and cryptate-labeled anti-cAMP antibody in Lysis and Detection Buffer (Cisbio) were added to assay plates, and the plates were incubated at room temperature for 1 h. HTRF measurements were performed using a Pherastar FSX instrument. Acceptor and donor emission signals were measured at 665 nm and 620 nm, respectively, and HTRF ratios were calculated as signal665 nm/signal620 nm×10^4. Data were normalised to high and low control values and fitted with 4-parameter logistic regression to determine hGPR65 IC50 values for the test compounds, which are shown in Table 1.
For `O=C(Nc1ccc(C(F)(F)F)c(Cl)c1)N1CCc2cc(C(F)(F)F)ccc2C1` [Compound 72, N-(3-Chloro-4-(trifluoromethyl)phenyl)-6-(trifluoromethyl)-3,4-dihydroisoquinoline-2(1H)-carboxamide], the IC50 was greater than 5 µM.
In the case of `O=C(Nc1ccc(C(F)(F)F)c(Cl)c1)N1CCc2cc(=O)[nH]cc2C1` [Compound 74, N-(3-Chloro-4-(trifluoromethyl)phenyl)-6-oxo-3,4,6,7-tetrahydro-2,7-naphthyridine-2(1H)-carboxamide], the IC50 is reported as less than 0.5 µM.
With `O=C(Nc1ccc(Cl)c(Cl)c1)N1CCc2cc(=O)[nH]cc2C1` [Compound 76, N-(3,4-Dichlorophenyl)-6-oxo-3,4,6,7-tetrahydro-2,7-naphthyridine-2(1H)-carboxamide] the IC50 was less than 0.5 µM.
Compound `O=C(Nc1ccc(Cl)c(C(F)(F)F)c1)N1CCc2[nH]c(=O)ccc2C1` [Compound 77, N-(4-Chloro-3-(trifluoromethyl)phenyl)-2-oxo-1,5,7,8-tetrahydro-1,6-naphthyridine-6(2H)-carboxamide] has an IC50 greater than 5 µM.
For `O=C(Nc1ccc(Cl)c(Cl)c1)N1CCc2[nH]c(=O)ccc2C1` [Compound 78, N-(3,4-Dichlorophenyl)-2-oxo-1,5,7,8-tetrahydro-1,6-naphthyridine-6(2H)-carboxamide], the IC50 was greater than 5 µM.
For `O=C(Nc1ccc(C(F)(F)F)c(Cl)c1)N1CCc2c[n+]([O-])ccc2C1` [Compound 79, 6-((3-Chloro-4-(trifluoromethyl)phenyl)carbamoyl)-5,6,7,8-tetrahydro-2,6-naphthyridine 2-oxide], the IC50 was less than 0.5 µM.
With `O=C(Nc1ccc(Cl)c(Cl)c1)N1CCc2oncc2C1` [Compound 80, N-(3,4-Dichlorophenyl)-6,7-dihydroisoxazolo[4,5-c]pyridine-5(4H)-carboxamide] the IC50 was 0.5 to 5 µM.
`O=C(Nc1ccc(Cl)c(Cl)c1)N1CCc2ccccc2C1` [Compound 81, N-(3,4-Dichlorophenyl)-3,4-dihydroisoquinoline-2(1H)-carboxamide] showed an IC50 of 0.5 to 5 µM.
`Nc1cc2c(cn1)CCN(C(=O)Nc1ccc(Cl)c(Cl)c1)C2` [Compound 82, 7-Amino-N-(3,4-dichlorophenyl)-3,4-dihydro-2,6-naphthyridine-2(1H)-carboxamide] gave an IC50 of less than 0.5 µM.
In the case of `Nc1cc2c(cn1)CCN(C(=O)Nc1ccc(C(F)(F)F)c(Cl)c1)C2` [Compound 83, 7-Amino-N-(3-chloro-4-(trifluoromethyl)phenyl)-3,4-dihydro-2,6-naphthyridine-2(1H)-carboxamide], the IC50 is reported as less than 0.5 µM.
`Nc1cc2c(cn1)CN(C(=O)Nc1ccc(Cl)c(Cl)c1)CC2` [Compound 84, 6-Amino-N-(3,4-dichlorophenyl)-3,4-dihydro-2,7-naphthyridine-2(1H)-carboxamide] was tested, and the IC50 was greater than 5 µM.
Compound `O=C(Nc1ccc(Cl)c(Cl)c1)N1CCc2cc(F)ncc2C1` [Compound 85, N-(3,4-dichlorophenyl)-6-fluoro-3,4-dihydro-2,7-naphthyridine-2(1H)-carboxamide] has an IC50 of less than 0.5 µM.
`O=C(Nc1ccc(Cl)c(Cl)c1)N1CCc2cnc(F)cc2C1` [Compound 86, N-(3,4-Dichlorophenyl)-7-fluoro-3,4-dihydro-2,6-naphthyridine-2(1H)-carboxamide] showed an IC50 of 0.5 to 5 µM.
`O=C(Nc1ccc(C(F)(F)F)c(Cl)c1)N1CCc2cnc(F)cc2C1` [Compound 87, N-(3-Chloro-4-(trifluoromethyl)phenyl)-7-fluoro-3,4-dihydro-2,6-naphthyridine-2(1H)-carboxamide] gave an IC50 of 0.5 to 5 µM.
In the case of `O=C(Nc1ccc(Cl)c(Cl)c1)N1CCc2[nH]c(=O)ncc2C1` [Compound 88, N-(3,4-Dichlorophenyl)-2-oxo-1,5,7,8-tetrahydropyrido[4,3-d]pyrimidine-6(2H)-carboxamide], the IC50 is reported as 0.5 to 5 µM.
`O=C(Nc1ccc(Cl)c(C(F)(F)F)c1)N1CCc2cc(=O)[nH]cc2C1` [Compound 89, N-(4-chloro-3-(trifluoromethyl)phenyl)-6-oxo-3,4,6,7-tetrahydro-2,7-naphthyridine-2(1H)-carboxamide] gave an IC50 of 0.5 to 5 µM.
In the case of `O=C(Nc1ccc(C(F)(F)F)c(Cl)c1)N1CCc2cnc(Cl)cc2C1` [Compound 90, 7-Chloro-N-(3-chloro-4-(trifluoromethyl)phenyl)-3,4-dihydro-2,6-naphthyridine-2(1H)-carboxamide], the IC50 is reported as 0.5 to 5 µM.
In the case of `O=C(Nc1ccc(C(F)(F)F)c(Cl)c1)N1CCc2cc(Cl)ncc2C1` [Compound 91, 6-Chloro-N-(3-chloro-4-(trifluoromethyl)phenyl)-3,4-dihydro-2,7-naphthyridine-2(1H)-carboxamide], the IC50 is reported as 0.5 to 5 µM.
`Cn1cc2c(cc1=O)CCN(C(=O)Nc1ccc(Cl)c(Cl)c1)C2` [Compound 92, N-(3,4-Dichlorophenyl)-7-methyl-6-oxo-3,4,6,7-tetrahydro-2,7-naphthyridine-2(1H)-carboxamide] gave an IC50 greater than 5 µM.
In the case of `CC1c2ccc(F)cc2CCN1C(=O)Nc1ccc(Cl)c(Cl)c1` (stereo not shown) [Compound 93, N-(3,4-Dichlorophenyl)-6-fluoro-1-methyl-3,4-dihydroisoquinoline-2(1H)-carboxamide], the IC50 is reported as less than 0.5 µM.
Work on `O=C(Nc1ccc(C(F)(F)F)c(Cl)c1)N1CCc2cc[n+]([O-])cc2C1` [Compound 94, 7-((3-Chloro-4-(trifluoromethyl)phenyl)carbamoyl)-5,6,7,8-tetrahydro-2,7-naphthyridine 2-oxide] yielded an IC50 greater than 5 µM.
In the case of `O=C(Nc1ccc(Cl)c(Cl)c1)N1CCc2cc(O)ccc2C1` [Compound 95, N-(3,4-Dichlorophenyl)-6-hydroxy-3,4-dihydroisoquinoline-2(1H)-carboxamide], the IC50 is reported as greater than 5 µM.
In the case of `O=C(Nc1ccc(Cl)c(Cl)c1)N1CCc2ccc(O)cc2C1` [Compound 96, N-(3,4-Dichlorophenyl)-7-hydroxy-3,4-dihydroisoquinoline-2(1H)-carboxamide], the IC50 is reported as 0.5 to 5 µM.
With `O=C(Nc1ccc(C(F)(F)F)c(Cl)c1)N1CCc2ccnc(Cl)c2C1` [Compound 97, 8-Chloro-N-(3-chloro-4-(trifluoromethyl)phenyl)-3,4-dihydro-2,7-naphthyridine-2(1H)-carboxamide] the IC50 was greater than 5 µM.
Work on `O=C(Nc1ccc(Cl)c(Cl)c1)N1CCc2nocc2C1` [Compound 98, N-(3,4-Dichlorophenyl)-6,7-dihydroisoxazolo[4,3-c]pyridine-5(4H)-carboxamide] yielded an IC50 of 0.5 to 5 µM.
For `O=C(Nc1ccc(Cl)c(Cl)c1)N1CCc2c[nH]c(=O)cc2C1` [Compound 99, N-(3,4-Dichlorophenyl)-7-oxo-3,4,6,7-tetrahydro-2,6-naphthyridine-2(1H)-carboxamide], the IC50 was greater than 5 µM.
`O=C(Nc1ccc(C(F)(F)F)c(Cl)c1)N1CCc2c[nH]c(=O)cc2C1` [Compound 100, N-(3-Chloro-4-(trifluoromethyl)phenyl)-7-oxo-3,4,6,7-tetrahydro-2,6-naphthyridine-2(1H)-carboxamide] was tested, and the IC50 was greater than 5 µM.
Work on `O=C(Nc1ccc(Cl)c(Cl)c1)N1CCc2nonc2C1` [Compound 101, N-(3,4-Dichlorophenyl)-6,7-dihydro-[1,2,5]oxadiazolo[3,4-c]pyridine-5(4H)-carboxamide] yielded an IC50 of 0.5 to 5 µM.
Compound `N#Cc1cc2c(cn1)CN(C(=O)Nc1ccc(Cl)c(Cl)c1)CC2` [Compound 102, 6-Cyano-N-(3,4-dichlorophenyl)-3,4-dihydro-2,7-naphthyridine-2(1H)-carboxamide] has an IC50 of 0.5 to 5 µM.
In the case of `N#Cc1cc2c(cn1)CCN(C(=O)Nc1ccc(Cl)c(Cl)c1)C2` [Compound 103, 7-Cyano-N-(3,4-dichlorophenyl)-3,4-dihydro-2,6-naphthyridine-2(1H)-carboxamide], the IC50 is reported as 0.5 to 5 µM.
With `O=C(Nc1ccc(C(F)(F)F)c(Cl)c1)N1CCc2cc(F)ncc2C1` [Compound 104, N-(3-chloro-4-(trifluoromethyl)phenyl)-6-fluoro-3,4-dihydro-2,7-naphthyridine-2(1H)-carboxamide] the IC50 was less than 0.5 µM.
Work on `COc1cc2c(cn1)CCN(C(=O)Nc1ccc(Cl)c(Cl)c1)C2` [Compound 105, N-(3,4-Dichlorophenyl)-7-methoxy-3,4-dihydro-2,6-naphthyridine-2(1H)-carboxamide] yielded an IC50 greater than 5 µM.
`O=C(Nc1ccc(Cl)c(Cl)c1)N1CCc2cc(F)c(F)cc2C1` [Compound 106, N-(3,4-Dichlorophenyl)-6,7-difluoro-3,4-dihydroisoquinoline-2(1H)-carboxamide] showed an IC50 of less than 0.5 µM.
For `COc1cc2c(cn1)CCN(C(=O)Nc1ccc(C(F)(F)F)c(Cl)c1)C2` [Compound 107, N-(3-Chloro-4-(trifluoromethyl)phenyl)-7-methoxy-3,4-dihydro-2,6-naphthyridine-2(1H)-carboxamide], the IC50 was greater than 5 µM.

From patent publication US20230174530A1, “N-(PHENYLAMINOCARBONYL) TETRAHYDRO-ISOQUINOLINES AND RELATED COMPOUNDS AS MODULATORS OF GPR65” (PATHIOS THERAPEUTICS LIMITED, priority 2020, published 2023)
